According to US20080051464A1, “Protein phosphatase inhibitors” (The Cleveland Clinic Foundation, priority 2006, published 2008):

Tests used:
[1] = system: pLck-pY505 (dephosphorylated by PTPase CD45) in Jurkat cells; assay: pLck-pY505 in Jurkat cells (Western blotting); assay type: cell-based, human; conditions: L5-treated Jurkat cells
Protocol: Jurkat cells in culture medium (3×10^6 cells/ml, 1 ml/tube) were treated with agents for designated times at room temperature. After brief centrifuging in a microfuge (4,000 rpm, 2 min), the cell pellet was lysed on ice for 30 min in 100 μl of cold lysis buffer (1% NP40, 50 mM Tris, pH 7.4, 150 mM NaCl, 20 mM NaF, 0.2 mM Na3VO4 and 1 mM Na3MO4) containing a cocktail of proteinase inhibitors (Sigma, 1 tablet/10 ml). The lysates were cleared by centrifuging (14,000 rpm, 10 min) in a microfuge at 4° C. to remove insoluble parts, mixed with equal volume of 2×SDS-PAGE sample buffer, boiled for 5 min and analyzed (˜3×10^5 cells/well) by SDS-PAGE/Western blotting. Relative intensities of phosphotyrosine bands were quantified through densitometry analysis.

B16 melanoma tumors [2] = assay: B16 melanoma tumor growth in athymic nude mice; assay type: in vivo, mouse; conditions: 3 mg/kg/day, oral, M-F/week
Protocol: To assess L5 anti-tumor activity, C57BL/6J mice or athymic nude mice (˜8-week old, female, Taconic Farms, Germantown, N.Y.) were inoculated (s.c.) at the flanks with B16 melanoma cells (4×10^4 cells/site). Four days post-inoculation, the mice were treated with PBS (Control) or L5 (˜3 mg/kg body weight/daily, Monday—Friday/week, oral gavage). Tumor volume (n=5) was measured during the study period and calculated using the formula for a prolate spheroid. Student's t test was used for assessing the significance of tumor volume differences among differential treatment groups. Mouse viability (daily) and body weights (weekly) were also recorded during the study period. Major internal organs of the mice were inspected visually upon their termination at the end of the experiment.

B16 melanoma tumors [3] = assay: B16 melanoma tumor growth in C57BL/6J mice; assay type: in vivo
Protocol: Tumor volume (n=5) was measured during the study period and calculated using the formula for a prolate spheroid. Student's t test was used for assessing the significance of tumor volume differences among differential treatment groups. Mouse viability (daily) and body weights (weekly) were also recorded during the study period. Major internal organs of the mice were inspected visually upon their termination at the end of the experiment.
To assess anti-tumor activity, C57BL/6J mice (˜8-week old, female, Taconic Farms, Germantown, N.Y.) were inoculated (s.c.) at the flanks with B16 melanoma cells (4×10^4 cells/site). […] Tumor volume (n=5) was measured during the study period and calculated using the formula for a prolate spheroid. Student's t test was used for assessing the significance of tumor volume differences among differential treatment groups. Mouse viability (daily) and body weights (weekly) were also recorded during the study period. Major internal organs of the mice were inspected visually upon their termination at the end of the experiment.

[4] = system: IFNγ+ cells in mouse splenocytes; assay: induction of IFNγ+ cells in mouse splenocytes in vitro (ELISPOT); assay type: cell-based; conditions: for increase of IFNγ+ cells in splenocytes: 16 hrs (FIG. 5A)
Protocol: The splenocytes were cultured in RPMI 1640 medium supplemented with 10% FCS in the absence or presence of designated agents for 16 hrs in flat-bottom 96-well plates coated with a monoclonal antibody specific for mouse IFNγ (mouse IFNγ ELISPOT Kit, R & D System). The plates were then processed for in situ detection of IFNγ+ cells by ELISA following the manufacturer's procedure. Scanning and counting of IFNγ+ cells in the plates were accomplished using an automatic ELISPOT reader with Immunospot2 software (Cellular Technology Ltd). Mouse splenocytes were also untreated or treated with agents for 16 hrs in culture dishes and then stained with appropriate isotype control antibodies or FICT-labeled anti-CD3 monoclonal antibody (BD) plus PE-labeled monoclonal antibody (BD) for intracellular IFNγ following established procedures. The stained samples were washed 3 times, re-suspended in 200 μl of 1% para-formaldehyde solution and analyzed (20,000 cells/sample) using a BD FACS Caliburs cytometer and WinList software.
The splenocytes were cultured in RPMI 1640 medium supplemented with 10% FCS in the absence or presence of designated agents for 16 hrs in flat-bottom 96-well plates coated with a monoclonal antibody specific for mouse IFNγ (mouse IFNγ ELISPOT Kit, R & D System). The plates were then processed for in situ detection of IFNγ+ cells by ELISA following the manufacturer's procedure. Scanning and counting of IFNγ+ cells in the plates were accomplished using an automatic ELISPOT reader with Immunospot2 software (Cellular Technology Ltd).

[5] = system: IFNγ+ cells in human peripheral blood; assay: induction of IFNγ+ cells in human peripheral blood in vitro (ELISPOT); assay type: cell-based
Protocol: For induction of human primary IFNγ+ cells, heparinized peripheral blood samples were obtained by vein-puncture from healthy volunteers following an established protocol approved by the Institutional Review Board (IRB) of Cleveland Clinic. To mimic in vivo drug-exposure, human peripheral blood samples were directly treated with different agents without pre-separation of white blood cells from other blood components. Blood samples (0.1 ml/sample) were mixed with the agents, incubated at 37° C. for 4 hrs, diluted with 5 volumes of hypotonic solution (10 mM Tris, pH 7.4; 10 mM NaCl) to lyse RBC and centrifuged to pellet WBCs. The pellets were washed with hypotonic solution one time, re-suspended in RPMI 1640 medium (10% FCS) and used for ELISPOT assays (Human IFNγ ELISPOT Kit, R & D System) to quantify human IFNγ+ cells as outlined above.

Structure (SMILES): O=C1C=CC(=O)C(c2cc(Cl)ccc2Cl)=C1 [L5]
- pLck-pY505 [1]: little effects
- B16 melanoma tumors in athymic nude mice (B16 melanoma tumors [2]): not inhibited
- survival of treated mice (B16 melanoma tumors [3]; 1 mg/kg daily, oral gavage): survived till the end of the study
- abnormality in behavior or gross anatomy (B16 melanoma tumors [3]; 3 mg/kg/day, oral): no apparent abnormality in behavior or gross anatomy
- survival of treated mice (B16 melanoma tumors [3]; 3 mg/kg/day, oral): survived until the end of the study
- growth inhibition of B16 tumors vs control (B16 melanoma tumors [3]; 3 mg/kg/day, oral, M-F/week, end of study): ~83%
- induction of IFNγ+ cells ([4]; 0.001 μg/ml (FIG. 11)): inactive
- increase of IFNγ+ cells in splenocytes ([4]; 1 μg/ml): ~14 fold
- increase of IFNγ+ cells in splenocytes ([4]; 3 μg/ml): ~26 fold
- increase of IFNγ+ cells in splenocytes ([4]; 10 μg/ml): ~17 fold
- increase of IFNγ+ cells in splenocytes ([4]; 30 μg/ml): ~10 fold
- induction of IFNγ+ cells ([4]; 0.01 to 1 μg/ml (FIG. 11A)): effective
- minimal effective dose for IFNγ+ cell induction ([4]; FIG. 11): 10 ng/mL
- induction of IFNγ+ cells ([4]; higher doses (FIG. 16B)): induced significant IFNγ+ cells
- induction of IFNγ+ cells ([4]; low doses (0.01 to 1 μg/ml), splenocytes of the same mouse (FIG. 16B)): 3-4 fold
- effectiveness compared with SSG in inducing IFNγ+ cells ([4]; maximal induction at a comparable dose, mouse splenocytes): ~58 fold
- maximal induction of IFNγ+ cells in human peripheral blood ([5]; 8 μg/ml): 20 fold
- effectiveness compared with SSG in inducing IFNγ+ cells ([5]; maximal induction at a comparable dose, human peripheral blood): ~20 fold
